Source: US7572910B2, “Pyridazinone aldose reductase inhibitors” (Pfizer, Inc., priority 2004, dated 2009)

O=c1ccc(S(=O)(=O)c2[nH]c3ccccc3c2Cl)n[nH]1 [Example 36, 6-(3-Chloro-indole-2-sulfonyl)-2H-pyridazin-3-one]
melting point: 250 °C

Cn1c(S(=O)(=O)c2ccc(=O)[nH]n2)cc2ccccc21 [Example 40, 6-(N-Methylindole-2-sulfonyl)-2H-pyridazin-3-one]
melting point: 233 to 235 °C

O=c1ccc(S(=O)(=O)c2oc3ccccc3c2O)n[nH]1 [Example 16, 6-(3-Hydroxy-benzofuran-2-sulfonyl)-2H-pyridazin-3-one]
melting point: 186 to 189 °C
